Experimental findings from patent publication US20260048046A1, “METHOD FOR IMPROVING GROWTH PERFORMANCE IN FEEDLOT CATTLE” (Elanco US Inc., priority 2022, published 2026) are described below.

This test has as its system beef cattle. The experiment in a line: 91-d study: growth performance of beef cattle fed lubabegron. The test is classed as in vivo. The note with it: for ADG / DMI / G:F / Unshrunk final BW: 91-d treatment, LS mean. The text has this: A randomized complete block design was used to evaluate the effect of lubabegron (LUB) on performance over a 91-d period using 336 beef cattle (BW=453±34.5 kg) housed in cattle pen enclosures (CPE). Four LUB treatments were included in the study based on dose: 0.0 (control or CON), 1.38, 5.5, and 22.0 (mg·kg^−1 of DM). Because there was a limited number of CPE (n=8), three sequential cycles (blocks) were required to generate 6 replicates of each dose×sex combination. As such, 112 cattle (56 steers and 56 heifers) were housed concurrently within each cycle across the eight CPE (14 cattle/CPE), with each dose×sex combination being represented by a single CPE/cycle. To assure different frame sizes of cattle were represented, cattle in cycles one and three were large-frame Continental crossbreds, whereas cattle in cycle 2 were medium-frame British crossbreds.
Treatment administration for the three cycles occurred from April through July, August through November, and December through March of 2014 and 2015, respectively. Four weeks before beginning treatments for each cycle (day −28), up to 145 cattle were sourced from a common origin and transported to the study site at the University of California-Davis to be group-housed in single-sexed outdoor pens. The presence of growth-promoting implants was assessed, and any preexisting implants were excised before shipment to the study site to ensure they had been implant-free for a minimum of 28 d before treatments began on day 0. No additional implants were used in these cattle, and they were considered nonimplanted.
On day −8, cattle were screened for abnormal health conditions by a veterinarian and ranked by BW to identify the 56 eligible cattle within each sex that provided the narrowest weight range. The following day (day −7), the 56 cattle selected for study enrollment. within each sex were grouped into sets of four consecutively weight-ranked cattle. Cattle were then randomly allocated to their respective treatment within each weight group and transferred into the CPE. The CPE were randomly assigned to sex and dose treatment before each cycle, and all study personnel were blinded to treatments throughout the duration of the study. All cattle were fed the negative control basal finishing diet (Table 1) for 1 week (days −7 to −1) after being placed into the CPE to allow for acclimation before beginning treatments.
Treatments began on day 0 and cattle in each CPE received their respective treatment for 91 d. Emission measurements began at 0800 hours on day 0 and ended at 0500 hours on day 91, immediately preceding cattle removal from the CPE for final BW measurements and transportation to the commercial slaughter facility.
Cattle had been fed a concentrate-based diet in a commercial setting before arrival at the study site on day −28, at which point they were provided ad libitum access to water and re-acclimated to a concentrate-based diet using a step-up program involving two intermediate diets based on increasing concentrate levels (˜60% and 70%, respectively) and varying proportions of alfalfa and wheat hay. On day −14, cattle were transitioned onto a finishing diet (Table 1) formulated to meet, or exceed, the minimum nutrient requirements for growing beef cattle (NRC, 2000) that was then fed for the remainder of the study. A nonmedicated supplement (i.e., type B feed with a ground corn carrier) was included as 2.5% of the diet DM during acclimation for all cattle from day −14 until the beginning of treatment administration. On day 0, one of four type B supplements were added to the basal diet to provide either 0.0 (CON), 1.38, 5.5, or 22.0 mg·kg^−1 (DM basis) LUB in a type C (i.e., final feed) medicated feed. All type C feeds containing the appropriate concentrations of LUB or CON were prepared at the study site by adding the same proportions of Type B supplement, water, and basal ration in a rotary mixer wagon (Roto-Mix Forage Express, Dodge City, KS). […]

With `CC(C)(Cc1ccc(Oc2ncccc2C#N)cc1)NC[C@H](O)COc1ccccc1-c1cccs1` [LUB, 2-{4-[2-({(2S)-2-Hydroxy-3-[2-(2-thienyl)phenoxy]propyl}amino)-2-methylpropyl]phenoxy}nicotinonitrile], the “Effect of LUB treatment on final BW” value (91 d, all LUB doses vs CON, P=0.257) was “not altered”. Further, where the note is “91 d, all LUB doses vs CON, P=0.585”, the “Effect of LUB on DMI” value is on record as “no effect”. Also, the “ADG increase vs. CON” value by setting is: (LUB 1.38 mg·kg^−1, 91 d) 11.8%; (LUB 5.5 mg·kg^−1, 91 d) 9.4%; (LUB 22.0 mg·kg^−1, 91 d) 12.6%. The “G:F increase compared with CON” value by setting is: (LUB 1.38 mg·kg^−1, 91 d) 8.3%; (LUB 5.5 mg·kg^−1, 91 d) 9.7%; (LUB 22.0 mg·kg^−1, 91 d) 13.2%. The ADG is listed as 1.42 kg (LUB 1.38 mg·kg^−1 DM), 1.35 kg (LUB 5.5 mg·kg^−1 DM) and 1.43 kg (LUB 22.0 mg·kg^−1 DM). In addition, the DMI came to 9.2 kg (LUB 1.38 mg·kg^−1 DM), 8.8 kg (LUB 5.5 mg·kg^−1 DM) and 8.8 kg (LUB 22.0 mg·kg^−1 DM). In addition, the “G:F” value is given as 0.156 kg:kg (LUB 1.38 mg·kg^−1 DM), 0.158 kg:kg (LUB 5.5 mg·kg^−1 DM) and 0.163 kg:kg (LUB 22.0 mg·kg^−1 DM). Also, the “Unshrunk final BW” value (LUB 1.38 mg·kg^−1 DM) is 583 kg, the “Unshrunk final BW” value (LUB 5.5 mg·kg^−1 DM) is reported as 582 kg and the “Unshrunk final BW” value (LUB 22.0 mg·kg^−1 DM) turned out to be 582 kg.
